Assay [1] deals with T1, Human fibrinogen receptor (αIIb β3) (Homo sapiens, UniProt P05106+P08514).
T1 construct: Human fibrinogen receptor (αIIb β3) was purified from outdated platelets; from tissue; host or cells: outdated human platelets
Briefly: Purified IIb/IIIa receptor assay (solid phase receptor assay, biotinylated vitronectin competition). To be noted: inhibition of 50% of the maximum binding of biotinylated vitronectin; 1 nM labeled ligand, 2 hours, room temperature, highest concentration of test compound 1.0×10^-4 M. The source says:
PURIFIED IIb/IIIa RECEPTOR ASSAY Human fibrinogen receptor (αIIb β3) was purified from outdated platelets. (Pytela, R., Pierschbacher, […]., Suzuki, S., and […] acid adhesion receptors", Methods in Enzymology 144(1987):475-489.) Human vitronectin was purified from fresh frozen plasma as described in Yatohgo, T., Izumi, M., Kashiwagi, H., and Hayashi, M., "Novel purification of vitronectin from human plasma by heparin affinity chromatography," Cell Structure and Function 13(1988):281-292. Biotinylated human vitronectin was prepared by coupling NHS-biotin from Pierce Chemical Company (Rockford, Ill.) to purified vitronectin as previously described. (Charo, […]., Phillips, D. R., Hsu, M. A., Scarborough, R. M., "Inhibition of fibrinogen binding to GP IIb/IIIa by a GP IIIa peptide", J. Biol. Chem. 266(3)(1991):1415-1421.) Assay buffer, OPD substrate tablets, and RIA grade BSA were obtained from Sigma (St. Louis, Mo.). Anti-biotin antibody was obtained from Calbiochem (La Jolla, Calif.). Linbro microtiter plates were obtained from Flow Labs (McLean, Va.). ADP reagent was obtained from Sigma (St. Louis, Mo.). Solid Phase Receptor Assays This assay is essentially the same reported in […]., Bader, R., Byers-Ward, […]., Plow, E. F. and Ruggeri, Z. M., "Increased surface expression of the membrane glycoprotein IIb/IIIa complex induced by platelet activation: Relationships to the binding of fibrinogen and platelet aggregation", Blood 70(1987):475-483. The purified human fibrinogen receptor (αIIb β3) was diluted from stock solutions to 1.0 μg/mL in Tris-buffered saline containing 1.0 mM Ca^++, Mg^++, and Mn^++, pH 7.4 (TBS^+++). The diluted receptor was immediately transferred to Linbro microtiter plates at 100 μL/well (100 ng receptor/well). The plates were sealed and incubated overnight at 4° C. to allow the receptor to bind to the wells. All remaining steps were at room temperature. The assay plates were emptied and 200 μL of 1% RIA grade BSA in TBS^+++ (TBS^+++ /BSA) were added to block exposed plastic surfaces. Following a 2 hour incubation, the assay plates were washed with TBS^+++ using a 96 well plate washer. Logarithmic serial dilution of the test compound and controls were made starting at a stock concentration of 2 mM and using 2 nM biotinylated vitronectin in TBS^+++ /BSA as the diluent. This premixing of labeled ligand with test (or control) ligand, and subsequent transfer of 50 μL aliquots to the assay plate was carried out with a CETUS Propette robot; the final concentration of the labeled ligand was 1 nM and the highest concentration of test compound was 1.0×10^-4 M. The competition occurred for two hours after which all wells were washed with a plate washer as before. Affinity purified horseradish peroxidase labeled goat antibiotin antibody was diluted 1:3000 in TBS^+++ /BSA and 125 μL were added to each well. After 30 minutes, the plates were washed and incubated with […]/H2 O2 substrate in 100 mM/L citrate buffer, pH 5.0. The plate was read with a microtiter plate reader at a wavelength of 450 nm and when the maximum-binding control wells reached an absorbance of about 1.0, the final A450 were recorded for analysis. The data were analyzed using a macro written for use with the EXCELTM spreadsheet program. The mean, standard deviation, and %CV were determined for duplicate concentrations. The mean A450 values were normalized to the mean of four maximum-binding controls (no competitor added)(B-MAX). The normalized values were subjected to a four parameter curve fit algorithm, [Robard et al., Int.

The target of assay [2] is T2, Human vitronectin receptor (αv β3) (Homo sapiens, UniProt P05106+P06756).
T2 construct: Human vitronectin receptor(αv β3) was purified from human placenta; from tissue; host or cells: human placenta
In words: Vitronectin adhesion assay (solid phase receptor assay, biotinylated vitronectin competition). The following applies: inhibition of 50% of the maximum binding of biotinylated vitronectin; 1 nM labeled ligand, 2 hours, room temperature, highest concentration of test compound 1.0×10^-4 M; read-out: AvB3 IC50. The format is binding. On the procedure:
VITRONECTIN ADHESION ASSAY Human vitronectin receptor(αv β3) was purified from human placenta as previously described [Pytela et al., Methods in Enzymology, 144:475-489 (1987)). Human vitronectin was purified from fresh frozen plasma as previously described [Yatohgo et al., Cell Structure and Function, 13:281-292 (1988)]. Biotinylated human vitronectin was prepared by coupling NHS-biotin from Pierce Chemical Company (Rockford, Ill.) to purified vitronectin as previously described [Charo et al., J. Biol. Chem., 266(3):1415-1421 (1991)]. Assay buffer, OPD substrate tablets, and RIA grade BSA were obtained from Sigma (St. Louis, Mo.). Anti-biotin antibody was obtained from Calbiochem (La Jolla, Calif.). Linbro microtiter plates were obtained from Flow Labs (McLean, Va.). ADP reagent was obtained from Sigma (St. Louis, Mo.). Solid Phase Receptor Assays This assay was essentially the same as previously reported [Niiya et al., Blood, 70:475-483 (1987)]. The purified human vitronectin receptor (αv β3) was diluted from stock solutions to 1.0 μg/mL in Tris-buffered saline containing 1.0 mM Ca^++, Mg^++, and Mn^++, pH 7.4 (TBS^+++). The diluted receptor was immediately transferred to Linbro microtiter plates at 100 μL/well (100 ng receptor/well). The plates were sealed and incubated overnight at 4° C. to allow the receptor to bind to the wells. All remaining steps were at room temperature. The assay plates were emptied and 200 μL of 1% RIA grade BSA in TBS^+++ (TBS^+++ /BSA) were added to block exposed plastic surfaces. Following a 2 hour incubation, the assay plates were washed with TBS^+++ using a 96 well plate washer. Logarithmic serial dilution of the test compound and controls were made starting at a stock concentration of 2 mM and using 2 nM biotinylated vitronectin in TBS^+++ /BSA as the diluent. This premixing of labeled ligand with test (or control) ligand, and subsequent transfer of 50 μL aliquots to the assay plate was carried out with a CETUS Propette robot; the final concentration of the labeled ligand was 1 nM and the highest concentration of test compound was 1.0×10^-4 M. The competition occurred for two hours after which all wells were washed with a plate washer as before. Affinity purified horseradish peroxidase labeled goat antibiotin antibody was diluted 1:3000 in TBS^+++ /BSA and 125 μL were added to each well. After 30 minutes, the plates were washed and incubated with OPD/H2 O2 substrate in 100 mM/L Citrate buffer, pH 5.0. The plate was read with a microtiter plate reader at a wavelength of 450 nm and when the maximum-binding control wells reached an absorbance of about 1.0, the final A450 were recorded for analysis. The data were analyzed using a macro written for use with the EXCEL™ spreadsheet program. The mean, standard deviation, and %CV were determined for duplicate concentrations. The mean A450 values were normalized to the mean of four maximum-binding controls (no competitor added)(B-MAX). The normalized values were subjected to a four parameter curve fit algorithm [Rodbard et al., Int.

Where a name gives a salt, the structure may show the parent alone.

Consider 16 compounds from patent US5773646A, “Meta-substituted phenylene derivatives” (G. D. Searle & Co., priority 1997, dated 1998).

As usually defined, the IC50 is the concentration that inhibits the measured activity by half. Consider `N=C(N)Nc1cccc(C(=O)NCc2cccc(C(CC(=O)O)c3ccccc3)c2)c1` (stereo not drawn) [Example 38, 3-[[[[3-[(aminoiminomethyl)amino]phenyl]carbonyl]amino]methyl]-β-phenylbenzenepropanoic acid, trifluoroacetate salt], for which the half-inhibitory concentration (IC50) in assay [1] turned out to be 0.364 µM; in assay [2] it was 0.00895 µM.

On to `CC(CC(=O)OC(C)(C)C)c1cccc(CNC(=O)c2cccc(NC(=N)N)c2)c1` (stereo not drawn) [Example 39, 1,1-dimethylethyl 3-[[[[3-[(aminoiminomethyl)amino]phenyl]carbonyl]amino]methyl]-β-methyl)benzenepropanoate, trifluoroacetate salt], for which the concentration for half-maximal inhibition (IC50) in assay [1] came out at 62.4 µM; in assay [2] it was 8.56 µM.

As for `CC(CC(=O)O)c1cccc(CNC(=O)c2cccc(NC(=N)N)c2)c1` (stereo not drawn) [Example 40, 3-[[[[3-[(aminoiminomethyl)amino]phenyl]carbonyl]amino]methyl]-β-methylbenzenepropanoic acid, trifluoroacetate salt], the figures for the IC50 in assay [1] and in assay [2] were 2.26 µM and 0.0116 µM, respectively.

Turning to `CCOC(=O)CC(CC)c1cccc(CNC(=O)c2cccc(NC(=N)N)c2)c1` (stereo not drawn) [Example 41, ethyl 3-[[[[3-[(aminoiminomethyl)amino]phenyl]carbonyl]amino]methyl)-β-ethylbenzenepropanoate, trifluoroacetate salt], the figures for the half-maximal inhibitory concentration (IC50) in assay [1] and in assay [2] were above 100 µM and 11.3 µM, respectively.

In the case of `CCC(CC(=O)O)c1cccc(CNC(=O)c2cccc(NC(=N)N)c2)c1` (stereo not drawn) [Example 42, 3-([[[3-[(aminoiminomethyl)amino]phenyl]carbonyl]amino]methyl]-β-ethylbenzenepropanoic acid, trifluoroacetate salt], the IC50 is 0.472 µM in assay [1] and 0.0117 µM in assay [2].

With `CC(C)C(CC(=O)O)c1cccc(CNC(=O)c2cccc(NC(=N)N)c2)c1` (stereo not drawn) [Example 43, 3-[[[[3-[(aminoiminomethyl)amino]phenyl]carbonyl]amino]methyl]-β-(1-methylethyl) benzenepropanoic acid, trifluoroacetate salt], the IC50 was found to be 0.798 µM in assay [1] and 0.00718 µM in assay [2].

For `N=C(N)Nc1cccc(C(=O)NCCc2cccc(CC(=O)O)c2)c1` [Example 44, 3-[2-[[[3-[(aminoiminomethyl)amino]phenyl]carbonyl]amino]ethyl]benzeneacetic acid, monohydrate trifluoroacetate salt], the half-inhibitory concentration (IC50) worked out at 0.094 µM in assay [1] and 3.21 µM in assay [2].

As for `CC(=O)NC(Cc1cccc(CNC(=O)c2cccc(NC(=N)N)c2)c1)C(=O)O` (centres unmarked) [Example 45, N-acetyl-3-[[[[3-[(aminoiminomethyl)amino]phenyl]carbonyl]amino]methyl)phenylalanine, bis(trifluoroacetate) salt], the figures for the IC50 in assay [1] and in assay [2] were 1.37 µM and 0.0723 µM, respectively.

As to `N=C(N)Nc1cccc(CC(=O)Nc2cccc(CCC(=O)O)c2)c1` [Example 46, 3-[[[3-[(aminoiminomethyl)amino]phenyl]acetyl]amino]benzenepropanoic acid, trifluoroacetate salt], the IC50 in assay [1] was determined as 2.28 µM; in assay [2] it was 2.44 µM.

Consider `COC(=O)Cc1cccc(CNC(=O)c2cccc(NC(=N)N)c2)c1` [Example 47, methyl 3-[[[[3-[(aminoiminomethyl)amino]phenyl]carbonyl]amino]methyl]benzeneacetate, trifluoroacetate salt], for which the IC50 in assay [1] was above 100 µM; in assay [2] it was 36.5 µM.

For `N=C(N)Nc1cccc(C(=O)NCc2cccc(CC(=O)O)c2)c1` [Example 49, 3-[[[[3-[(aminoiminomethyl)amino]phenyl]carbonyl]amino]methyl]benzeneacetic acid, trifluoroacetate salt], the results for the IC50 in assay [1] and in assay [2] were 12.7 µM and 1.68 µM, respectively.

Consider `N=C(N)Nc1cccc(C(=O)Nc2cccc(CC(=O)O)c2)c1` [Example 50, 3-[[[3-[(aminoiminomethyl)amino]phenyl]carbonyl]amino]benzeneacetic acid, trifluoroacetate salt], for which the figures for the 50% inhibitory concentration (IC50) in assay [1] and in assay [2] were 55.5 µM and above 100 µM, respectively.

Consider `N=C(N)Nc1cccc(NC(=O)Nc2cccc(CCC(=O)O)c2)c1` [Example 51, 3-[[[[3-[(aminoiminomethyl)amino]phenyl]amino]carbonyl]amino]benzenepropanoic acid, trifluoroacetate salt], for which the IC50 in assay [1] is 10.7 µM; in assay [2] it was 3.09 µM.

With `N=C(N)Nc1cccc(NC(=O)Nc2cccc(OCC(=O)O)c2)c1` [Example 52, [3-[[[[3-[(aminoiminomethyl)amino]phenyl]amino]carbonyl]amino]phenoxy]acetic acid, trifluoroacetate salt], the concentration for half-maximal inhibition (IC50) in assay [1] is 39.7 µM; in assay [2] it was 16.6 µM.

Turning to `N=C(N)Nc1cccc(NC(=O)NCc2cccc(CCC(=O)O)c2)c1` [Example 53, 3-[[[[[3-[(aminoiminomethyl)amino]phenyl]amino]carbonyl]amino]methyl]benzenepropanoic acid, trifluoroacetate salt], the half-inhibitory concentration (IC50) in assay [1] was 2.64 µM; in assay [2] it was 1.67 µM.

`N=C(N)Nc1cccc(C(=O)NCc2cccc(C(CC(=O)O)c3cc(Cl)cc(Cl)c3)c2)c1` (centres unmarked) [Example 54]: the half-maximal inhibitory concentration (IC50) turned out to be 0.145 µM in assay [1] and 0.0198 µM in assay [2].
